Measured values from PubChem BioAssay (NCI).
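Five concentrations, 48 hours, 96-well plates. GI50: concentration for 50% inhibition of growth. At the TGI there is no net growth.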

Assays:
Experiment in all cases: NCI-60 cell line screen, 48 h
A549 NSCLC = system: A549 NSCLC
SNB-75 CNS = system: SNB-75 CNS
PC-3 prostate = system: PC-3 prostate
UACC-62 melanoma = system: UACC-62 melanoma
OVCAR-5 ovarian = system: OVCAR-5 ovarian
CAKI-1 renal = system: CAKI-1 renal
SN12C renal = system: SN12C renal
KM12 colon = system: KM12 colon
HS 578T breast = system: HS 578T breast
MOLT-4 leukemia = system: MOLT-4 leukemia
NCI-H522 lung = system: NCI-H522 lung
IGROV1 ovarian = system: IGROV1 ovarian
HOP-92 NSCLC = system: HOP-92 NSCLC
OVCAR-8 ovarian = system: OVCAR-8 ovarian
DU-145 prostate = system: DU-145 prostate
SW-620 colon = system: SW-620 colon
BT-549 breast = system: BT-549 breast
OVCAR-4 ovarian = system: OVCAR-4 ovarian
MCF7 breast = system: MCF7 breast
HL-60(TB) leukemia = system: HL-60(TB) leukemia
OVCAR-3 ovarian = system: OVCAR-3 ovarian
SF-268 CNS = system: SF-268 CNS
COLO 205 colon = system: COLO 205 colon
HCT-15 colon = system: HCT-15 colon
RPMI-8226 leukemia = system: RPMI-8226 leukemia
A498 renal = system: A498 renal
SNB-19 CNS = system: SNB-19 CNS
ACHN renal = system: ACHN renal
NCI-H23 lung = system: NCI-H23 lung
NCI-H460 lung = system: NCI-H460 lung
HCC-2998 colon = system: HCC-2998 colon
SR leukemia = system: SR leukemia
UO-31 renal = system: UO-31 renal
SK-MEL-28 melanoma = system: SK-MEL-28 melanoma
MDA-MB-231 breast = system: MDA-MB-231 breast
NCI/ADR-RES ovarian = system: NCI/ADR-RES ovarian
HOP-62 NSCLC = system: HOP-62 NSCLC
K-562 leukemia = system: K-562 leukemia
TK-10 renal = system: TK-10 renal
LOX IMVI melanoma = system: LOX IMVI melanoma
EKVX NSCLC = system: EKVX NSCLC
786-0 renal = system: 786-0 renal
SF-295 CNS = system: SF-295 CNS
UACC-257 melanoma = system: UACC-257 melanoma
MALME-3M melanoma = system: MALME-3M melanoma
CCRF-CEM leukemia = system: CCRF-CEM leukemia
SF-539 CNS = system: SF-539 CNS
SK-MEL-2 melanoma = system: SK-MEL-2 melanoma
T-47D breast = system: T-47D breast
MDA-MB-435 = system: MDA-MB-435
M14 melanoma = system: M14 melanoma
NCI-H226 lung = system: NCI-H226 lung
HT29 colon = system: HT29 colon
SK-MEL-5 melanoma = system: SK-MEL-5 melanoma
U251 CNS = system: U251 CNS
SK-OV-3 ovarian = system: SK-OV-3 ovarian
HCT-116 colon = system: HCT-116 colon

In the case of COc1cccc2c1c(C(=O)C(=O)Nc1cc(C)no1)cn2Cc1ccc(F)cc1, the GI50 (A549 NSCLC) is reported as 23.8 µM, the TGI (A549 NSCLC) is reported as over 100 µM and the GI50 (SNB-75 CNS) is reported as 3.42 µM. For the same molecule, the TGI (SNB-75 CNS) was over 73.5 µM, the GI50 (PC-3 prostate) was 11 µM and the TGI (PC-3 prostate) was over 84.9 µM. It also gave a GI50 (UACC-62 melanoma) of 3.29 µM, a TGI (UACC-62 melanoma) of over 100 µM and a GI50 (OVCAR-5 ovarian) of over 55.5 µM. It also gave a TGI (OVCAR-5 ovarian) of over 100 µM, a GI50 (CAKI-1 renal) of 5.92 µM and a TGI (CAKI-1 renal) of over 45.4 µM. The GI50 (SN12C renal) was 8.28 µM, the TGI (SN12C renal) was over 81.8 µM and the GI50 (KM12 colon) was 2.19 µM. The TGI (KM12 colon) was over 44.4 µM, the GI50 (HS 578T breast) was 3.47 µM and the TGI (HS 578T breast) was over 56.9 µM. It also gave a GI50 (MOLT-4 leukemia) of 3.99 µM, a TGI (MOLT-4 leukemia) of over 60.7 µM and a GI50 (NCI-H522 lung) of 8.51 µM. The TGI (NCI-H522 lung) was over 100 µM, the GI50 (IGROV1 ovarian) was 3.68 µM and the TGI (IGROV1 ovarian) was over 45.8 µM. The GI50 (HOP-92 NSCLC) was 14.2 µM, the TGI (HOP-92 NSCLC) was over 66 µM and the GI50 (OVCAR-8 ovarian) was 25.2 µM. The TGI (OVCAR-8 ovarian) was over 100 µM, the GI50 (DU-145 prostate) was 19.4 µM and the TGI (DU-145 prostate) was over 100 µM. It also gave a GI50 (SW-620 colon) of 3.68 µM, a TGI (SW-620 colon) of over 100 µM and a GI50 (BT-549 breast) of 5.36 µM. The TGI (BT-549 breast) was over 100 µM, the GI50 (OVCAR-4 ovarian) was 24 µM and the TGI (OVCAR-4 ovarian) was over 100 µM. It also gave a GI50 (MCF7 breast) of 3.27 µM, a TGI (MCF7 breast) of over 90.6 µM and a GI50 (HL-60(TB) leukemia) of 2.2 µM. For the same molecule, the TGI (HL-60(TB) leukemia) was over 20.2 µM, the GI50 (OVCAR-3 ovarian) was 2.62 µM and the TGI (OVCAR-3 ovarian) was over 27.3 µM. The GI50 (SF-268 CNS) was 8.73 µM, the TGI (SF-268 CNS) was over 100 µM and the GI50 (COLO 205 colon) was 13.8 µM. The TGI (COLO 205 colon) was 53 µM, the GI50 (HCT-15 colon) was 2.64 µM and the TGI (HCT-15 colon) was over 100 µM. It also gave a GI50 (RPMI-8226 leukemia) of 2.11 µM, a TGI (RPMI-8226 leukemia) of over 24.2 µM and a GI50 (A498 renal) of 19.6 µM. For the same molecule, the TGI (A498 renal) was over 67.5 µM, the GI50 (SNB-19 CNS) was 10.1 µM and the TGI (SNB-19 CNS) was over 100 µM. For the same molecule, the GI50 (ACHN renal) was 15.4 µM, the TGI (ACHN renal) was over 100 µM and the GI50 (NCI-H23 lung) was over 40.5 µM. For the same molecule, the TGI (NCI-H23 lung) was over 84 µM, the GI50 (NCI-H460 lung) was 5.15 µM and the TGI (NCI-H460 lung) was 46.9 µM. It also gave a GI50 (HCC-2998 colon) of 37 µM, a TGI (HCC-2998 colon) of over 100 µM and a GI50 (SR leukemia) of 0.573 µM. The TGI (SR leukemia) was over 100 µM, the GI50 (UO-31 renal) was 8.77 µM and the TGI (UO-31 renal) was over 100 µM. For the same molecule, the GI50 (SK-MEL-28 melanoma) was 7.59 µM, the TGI (SK-MEL-28 melanoma) was over 89.6 µM and the GI50 (MDA-MB-231 breast) was 5.41 µM. It also gave a TGI (MDA-MB-231 breast) of over 100 µM, a GI50 (NCI/ADR-RES ovarian) of 3.78 µM and a TGI (NCI/ADR-RES ovarian) of over 24 µM. For the same molecule, the GI50 (HOP-62 NSCLC) was over 35.9 µM, the TGI (HOP-62 NSCLC) was over 100 µM and the GI50 (K-562 leukemia) was 1.91 µM. The TGI (K-562 leukemia) was over 36.5 µM, the GI50 (TK-10 renal) was 15.3 µM and the TGI (TK-10 renal) was over 100 µM. For the same molecule, the GI50 (LOX IMVI melanoma) was 7.87 µM, the TGI (LOX IMVI melanoma) was over 100 µM and the GI50 (EKVX NSCLC) was 32.6 µM. The TGI (EKVX NSCLC) was over 100 µM, the GI50 (786-0 renal) was 19.2 µM and the TGI (786-0 renal) was over 100 µM. It also gave a GI50 (SF-295 CNS) of 6.26 µM, a TGI (SF-295 CNS) of over 100 µM and a GI50 (UACC-257 melanoma) of 9.25 µM. For the same molecule, the TGI (UACC-257 melanoma) was 71.8 µM, the GI50 (MALME-3M melanoma) was 93.2 µM and the TGI (MALME-3M melanoma) was over 100 µM. For the same molecule, the GI50 (CCRF-CEM leukemia) was 6.24 µM, the TGI (CCRF-CEM leukemia) was over 100 µM and the GI50 (SF-539 CNS) was 7.52 µM. The TGI (SF-539 CNS) was over 80 µM, the GI50 (SK-MEL-2 melanoma) was 8.48 µM and the TGI (SK-MEL-2 melanoma) was over 87.3 µM. The GI50 (T-47D breast) was 5.17 µM, the TGI (T-47D breast) was over 100 µM and the GI50 (MDA-MB-435) was 1.08 µM. For the same molecule, the TGI (MDA-MB-435) was 3.64 µM, the GI50 (M14 melanoma) was 5.42 µM and the TGI (M14 melanoma) was over 79.9 µM. The GI50 (NCI-H226 lung) was 36.2 µM, the TGI (NCI-H226 lung) was over 100 µM and the GI50 (HT29 colon) was 3.32 µM. The TGI (HT29 colon) was over 100 µM, the GI50 (SK-MEL-5 melanoma) was 3.08 µM and the TGI (SK-MEL-5 melanoma) was 25.6 µM. It also gave a GI50 (U251 CNS) of 4.78 µM, a TGI (U251 CNS) of over 100 µM and a GI50 (SK-OV-3 ovarian) of 31.4 µM. The TGI (SK-OV-3 ovarian) was over 100 µM, the GI50 (HCT-116 colon) was 5.58 µM and the TGI (HCT-116 colon) was over 64.1 µM.
